Here are results for eleven compounds from patent publication US9499550B2 (BRISTOL-MYERS SQUIBB COMPANY, priority 2012, dated 2016).

Assay [1] relates to HCV genotype 1b (Con1) replicon in HUH-7 cells. Kind of assay: HCV replicon luciferase reporter assay, genotype 1b. Particulars: Hepatitis C virus, Huh-7, 72 h, HCV genotype 1b replicon luciferase, 3 days incubation. In kind it is cell-based. The method in brief: (§1)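 Replicon inhibition for both genotypes was measured as Renilla luciferase signal (EnduRen, 7.5 μM final, 2 h) after 3-day, 37° C exposure of replicon-bearing HUH-7 cells in 4% FCS DMEM, 0.5% DMSO. The 1b construct carries S1179I; the 1a H77 construct carries P1496L and S2204I. Twenty-point, 3-fold dilutions were fitted four-parametrically for EC50, and CC50 was taken from multiplexed Cell Titer-Blue.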
(Replicon systems follow genome replication, usually without infectious particles.)

The subject of assay [2] is HCV genotype 1a (H77 strain) replicon in HUH-7 cells. Kind of assay: HCV replicon luciferase reporter assay, genotype 1a. In kind it is cell-based. Particulars: Hepatitis C virus, Huh-7, 72 h, HCV genotype 1a replicon luciferase, 3 days incubation. An outline of the steps: as §1

Like-named read-outs stand apart in the source and are kept apart here.

The term EC50 denotes the midpoint of the concentration-response curve. For the compound `COc1cc2cc(-c3ccc(OC(C)C)cc3)nc(O[C@@H]3C[C@H]4C(=O)N[C@]5(C(=O)NS(=O)(=O)C6CC6)C[C@H]5/C=C\CC[C@H](C)C[C@@H](C)[C@H](NC(=O)O[C@@H]5C[C@@H]6C[C@@H]6C5)C(=O)N4C3)c2cc1F` [Compound 3187, (1R,3r,5S)-bicyclo[3.1.0]hexan-3-yl((2R,6S,7R,9S,13aS,14aR,16aS,Z)-14a-((cyclopropylsulfonyl)carbamoyl)-2-((7-fluoro-3-(4-isopropoxyphenyl)-6-methoxyisoquinolin-1-yl)oxy)-7,9-dimethyl-5,16-dioxo-1,2,3,5,6,7,8,9,10,11,13a,14,14a,15,16,16a-hexadecahydrocyclopropa[e]pyrrolo[1,2-a][1,4]diazacyclopentadecin-6-yl)carbamate], the EC50 in assay [1] (read-out: LE_1b (EC50, range)) was less than 5.46 nM; in assay [2] (read-out: LE_1a (EC50, range)) it was less than 5.46 nM.

Take `COc1cc2cc(-c3ccc(OC(C)C)cc3)nc(O[C@@H]3C[C@H]4C(=O)N[C@]5(C(=O)NS(=O)(=O)C6CC6)C[C@H]5/C=C\CC[C@@H](C)C[C@@H](C)[C@H](NC(=O)O[C@@H]5C[C@@H]6C[C@@H]6C5)C(=O)N4C3)c2cc1F` [Compound 3188, (1R,3r,5S)-bicyclo[3.1.0]hexan-3-yl((2R,6S,7R,9R,13aS,14aR,16aS,Z)-14a-((cyclopropylsulfonyl)carbamoyl)-2-((7-fluoro-3-(4-isopropoxyphenyl)-6-methoxyisoquinolin-1-yl)oxy)-7,9-dimethyl-5,16-dioxo-1,2,3,5,6,7,8,9,10,11,13a,14,14a,15,16,16a-hexadecahydrocyclopropa[e]pyrrolo[1,2-a][1,4]diazacyclopentadecin-6-yl)carbamate]: the EC50 in assay [1] (read-out: LE_1b (EC50, range)) was less than 5.46 nM; in assay [2] (read-out: LE_1a (EC50, range)), less than 5.46 nM.

With `COc1cc2cc(-c3ccc(OC(C)C)cc3)nc(O[C@@H]3C[C@H]4C(=O)N[C@]5(C(=O)NS(=O)(=O)C6CC6)C[C@H]5/C=C\CC[C@H](C)C[C@@H](C)[C@H](NC(=O)OC(C)(C)C(F)(F)F)C(=O)N4C3)c2cc1F` [Compound 3189, 1,1,1-trifluoro-2-methylpropan-2-yl((2R,6S,7R,9S,13aS,14aR,16aS,Z)-14a-((cyclopropylsulfonyl)carbamoyl)-2-((7-fluoro-3-(4-isopropoxyphenyl)-6-methoxyisoquinolin-1-yl)oxy)-7,9-dimethyl-5,16-dioxo-1,2,3,5,6,7,8,9,10,11,13a,14,14a,15,16,16a-hexadecahydrocyclopropa[e]pyrrolo[1,2-a][1,4]diazacyclopentadecin-6-yl)carbamate], the EC50 was less than 5.46 nM in assay [1] (read-out: LE_1b (EC50, range)) and 4.82 to 103 nM in assay [2] (read-out: LE_1a (EC50, range)).

Turning to `COc1cc2cc(-c3ccc(OC(C)C)cc3)nc(O[C@@H]3C[C@H]4C(=O)N[C@]5(C(=O)NS(=O)(=O)C6CC6)C[C@H]5/C=C\CC[C@@H](C)C[C@@H](C)[C@H](NC(=O)OC(C)(C)C(F)(F)F)C(=O)N4C3)c2cc1F` [Compound 3190, 1,1,1-trifluoro-2-methylpropan-2-yl((2R,6S,7R,9R,13aS,14aR,16aS,Z)-14a-((cyclopropylsulfonyl)carbamoyl)-2-((7-fluoro-3-(4-isopropoxyphenyl)-6-methoxyisoquinolin-1-yl)oxy)-7,9-dimethyl-5,16-dioxo-1,2,3,5,6,7,8,9,10,11,13a,14,14a,15,16,16a-hexadecahydrocyclopropa[e]pyrrolo[1,2-a][1,4]diazacyclopentadecin-6-yl)carbamate], the EC50 was less than 5.46 nM in assay [1] (read-out: LE_1b (EC50, range)) and less than 5.46 nM in assay [2] (read-out: LE_1a (EC50, range)).

Take `COc1cc2cc(-c3ccc(OC(C)C)cc3)nc(O[C@@H]3C[C@H]4C(=O)N[C@]5(C(=O)NS(=O)(=O)C6(C)CC6)C[C@H]5/C=C\CC[C@H](C)C[C@@H](C)[C@H](NC(=O)O[C@@H]5C[C@@H]6C[C@@H]6C5)C(=O)N4C3)c2cc1F` [Compound 3191, (1R,3r,5S)-bicyclo[3.1.0]hexan-3-yl((2R,6S,7R,9S,13aS,14aR,16aS,Z)-2-((7-fluoro-3-(4-isopropoxyphenyl)-6-methoxyisoquinolin-1-yl)oxy)-7,9-dimethyl-14a-(((1-methylcyclopropyl)sulfonyl)carbamoyl)-5,16-dioxo-1,2,3,5,6,7,8,9,10,11,13a,14,14a,15,16,16a-hexadecahydrocyclopropa[e]pyrrolo[1,2-a][1,4]diazacyclopentadecin-6-yl)carbamate]: the EC50 in assay [1] (read-out: LE_1b (EC50, range)) was less than 5.46 nM; in assay [2] (read-out: LE_1a (EC50, range)), 4.82 to 103 nM.

As for `COc1cc2cc(-c3ccc(OC(C)C)cc3)nc(O[C@@H]3C[C@H]4C(=O)N[C@]5(C(=O)NS(=O)(=O)C6(C)CC6)C[C@H]5/C=C\CC[C@@H](C)C[C@@H](C)[C@H](NC(=O)O[C@@H]5C[C@@H]6C[C@@H]6C5)C(=O)N4C3)c2cc1F` [Compound 3192, (1R,3r,5S)-bicyclo[3.1.0]hexan-3-yl((2R,6S,7R,9R,13aS,14aR,16aS,Z)-2-((7-fluoro-3-(4-isopropoxyphenyl)-6-methoxyisoquinolin-1-yl)oxy)-7,9-dimethyl-14a-(((1-methylcyclopropyl)sulfonyl)carbamoyl)-5,16-dioxo-1,2,3,5,6,7,8,9,10,11,13a,14,14a,15,16,16a-hexadecahydrocyclopropa[e]pyrrolo[1,2-a][1,4]diazacyclopentadecin-6-yl)carbamate], the EC50 in assay [1] (read-out: LE_1b (EC50, range)) is less than 5.46 nM; in assay [2] (read-out: LE_1a (EC50, range)), less than 5.46 nM.

Consider `CCOc1cc2cc(OC)ccc2c(O[C@@H]2C[C@H]3C(=O)N[C@]4(C(=O)NS(=O)(=O)C5(C)CC5)C[C@H]4/C=C\CC[C@H](C)C[C@@H](C)[C@H](NC(=O)OC(C)(C)C)C(=O)N3C2)n1` [Compound 3193, tert-butyl ((2R,6S,7R,9S,13aS,14aR,16aS,Z)-2-((3-ethoxy-6-methoxyisoquinolin-1-yl)oxy)-7,9-dimethyl-14a-(((1-methylcyclopropyl)sulfonyl)carbamoyl)-5,16-dioxo-1,2,3,5,6,7,8,9,10,11,13a,14,14a,15,16,16a-hexadecahydrocyclopropa[e]pyrrolo[1,2-a][1,4]diazacyclopentadecin-6-yl)carbamate], for which the concentration for a half-maximal effect (EC50) in assay [1] (read-out: LE_1b (EC50, range)) lay within 0.51 to 1 nM; in assay [2] (read-out: LE_1a (EC50, range)), 1.01 to 5 nM.

As to `CCOc1cc2cc(OC)ccc2c(O[C@@H]2C[C@H]3C(=O)N[C@]4(C(=O)NS(=O)(=O)C5(C)CC5)C[C@H]4/C=C\CC[C@@H](C)C[C@@H](C)[C@H](NC(=O)OC(C)(C)C)C(=O)N3C2)n1` [Compound 3194, tert-butyl ((2R,6S,7R,9R,13aS,14aR,16aS,Z)-2-((3-ethoxy-6-methoxyisoquinolin-1-yl)oxy)-7,9-dimethyl-14a-(((1-methylcyclopropyl)sulfonyl)carbamoyl)-5,16-dioxo-1,2,3,5,6,7,8,9,10,11,13a,14,14a,15,16,16a-hexadecahydrocyclopropa[e]pyrrolo[1,2-a][1,4]diazacyclopentadecin-6-yl)carbamate], the EC50 is 0.44 nM in assay [1] (read-out: LE_1b (EC50)); 0.1 to 0.5 nM in assay [1] (read-out: LE_1b (EC50, range)); 0.62 nM in assay [2] (read-out: LE_1a (EC50)); 0.51 to 1 nM in assay [2] (read-out: LE_1a (EC50, range)).

For `COc1ccc2c(O[C@@H]3C[C@H]4C(=O)N[C@]5(C(=O)NS(=O)(=O)C6(C)CC6)C[C@H]5/C=C\CC[C@H](C)C[C@@H](C)[C@H](NC(=O)OC(C)(C)C)C(=O)N4C3)nc(OC(C)C)cc2c1` [Compound 3195, tert-butyl ((2R,6S,7R,9S,13aS,14aR,16aS,Z)-2-((3-isopropoxy-6-methoxyisoquinolin-1-yl)oxy)-7,9-dimethyl-14a-(((1-methylcyclopropyl)sulfonyl)carbamoyl)-5,16-dioxo-1,2,3,5,6,7,8,9,10,11,13a,14,14a,15,16,16a-hexadecahydrocyclopropa[e]pyrrolo[1,2-a][1,4]diazacyclopentadecin-6-yl)carbamate], the EC50 in assay [1] (read-out: LE_1b (EC50, range)) was in the range of 0.51 to 1 nM; in assay [2] (read-out: LE_1a (EC50, range)) it was 1.01 to 5 nM.

`COc1ccc2c(O[C@@H]3C[C@H]4C(=O)N[C@]5(C(=O)NS(=O)(=O)C6(C)CC6)C[C@H]5/C=C\CC[C@@H](C)C[C@@H](C)[C@H](NC(=O)OC(C)(C)C)C(=O)N4C3)nc(OC(C)C)cc2c1` [Compound 3196, tert-butyl ((2R,6S,7R,9R,13aS,14aR,16aS,Z)-2-((3-isopropoxy-6-methoxyisoquinolin-1-yl)oxy)-7,9-dimethyl-14a-(((1-methylcyclopropyl)sulfonyl)carbamoyl)-5,16-dioxo-1,2,3,5,6,7,8,9,10,11,13a,14,14a,15,16,16a-hexadecahydrocyclopropa[e]pyrrolo[1,2-a][1,4]diazacyclopentadecin-6-yl)carbamate]: the EC50 in assay [1] (read-out: LE_1b (EC50, range)) is 0.1 to 0.5 nM; in assay [2] (read-out: LE_1a (EC50, range)) it was 0.51 to 1 nM.

Turning to `CCOc1cc2cc(OC)ccc2c(O[C@@H]2C[C@H]3C(=O)N[C@]4(C(=O)NS(=O)(=O)C5(C)CC5)C[C@H]4/C=C\CC[C@@H](C)C[C@@H](C)[C@H](NC(=O)OC(C)(C)C(F)(F)F)C(=O)N3C2)n1` [Compound 3198, 1,1,1-trifluoro-2-methylpropan-2-yl((2R,6S,7R,9R,13aS,14aR,16aS,Z)-2-((3-ethoxy-6-methoxyisoquinolin-1-yl)oxy)-7,9-dimethyl-14a-(((1-methylcyclopropyl)sulfonyl)carbamoyl)-5,16-dioxo-1,2,3,5,6,7,8,9,10,11,13a,14,14a,15,16,16a-hexadecahydrocyclopropa[e]pyrrolo[1,2-a][1,4]diazacyclopentadecin-6-yl)carbamate], the EC50 in assay [1] (read-out: LE_1b (EC50, range)) lay within 1.01 to 5 nM; in assay [2] (read-out: LE_1a (EC50, range)) it was 0.51 to 1 nM.
